Assay results reported in patent US10981926B2 (Janssen Pharmaceutica NV, priority 2016, dated 2021).

Assays:
[1] = molecular target: T1, wild-type Androgen Receptor (AR-wt) (Homo sapiens (Human), UniProt P10275); assay: LNCaP-AR-wt AG reporter assay (agonist mode); type: cell-based; settings: for EC50: agonist mode, pEC50 = −Log10(EC50 in Molar), read-out: LNCaP-AR-wt AG pEC50 (converted); for Emax: maximum % stimulation (agonist response) over the tested concentration range, read-out: LNCaP-AR-wt AG MAX % Stim
[2] = molecular target: T1, wild-type Androgen Receptor (AR-wt); assay: LNCaP-AR-wt ANT reporter assay (antagonist mode); type: cell-based; settings: for IC50: read-out: LNCaP-AR-wt ANT pIC50 (converted); for Emax: maximum % inhibition of R1881 control response over the tested concentration range, read-out: LNCaP-AR-wt ANT MAX % Inh
[3] = molecular target: T2, F876L mutant Androgen Receptor (AR-F876L) (Homo sapiens (Human), UniProt P10275, F877L); assay: LNCaP-AR-F876L ANT reporter assay (antagonist mode); type: cell-based; settings: for IC50: read-out: LNCaP-AR-F876L ANT pIC50 (converted); for Emax: maximum % inhibition of R1881 control response over the tested concentration range, read-out: LNCaP-AR-F876L ANT MAX % Inh
[4] = molecular target: T2, F876L mutant Androgen Receptor (AR-F876L); assay: LNCaP-AR-F876L AG reporter assay (agonist mode); type: cell-based; settings: for EC50: agonist mode, pEC50 = −Log10(EC50 in Molar), read-out: LNCaP-AR-F876L AG pEC50 (converted); for Emax: maximum % stimulation (agonist response) over the tested concentration range, read-out: LNCaP-AR-F876L AG MAX % Stim
rGABA-gated Cl− channel = assay: GABA-Gated Cl Channel Antagonist Radioligand Binding Assay; design: species or system rat; settings: 10 μM single point, [35S]-TBPS, cerebral cortex membrane homogenates
Procedure, shortened: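 Values give percent inhibition of control specific […] (3 nM) binding at a single 10 μM compound concentration. Cerebral cortex membranes, 120 min, 22° C, phosphate buffer pH 7.4 with 500 mM NaCl; 20 μM picrotoxinin sets nonspecific binding; filtration and scintillation read-out.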

[5] = antagonist mode, pIC50 = −Log10(IC50 in Molar)

T1 sequence (P10275 whole entry): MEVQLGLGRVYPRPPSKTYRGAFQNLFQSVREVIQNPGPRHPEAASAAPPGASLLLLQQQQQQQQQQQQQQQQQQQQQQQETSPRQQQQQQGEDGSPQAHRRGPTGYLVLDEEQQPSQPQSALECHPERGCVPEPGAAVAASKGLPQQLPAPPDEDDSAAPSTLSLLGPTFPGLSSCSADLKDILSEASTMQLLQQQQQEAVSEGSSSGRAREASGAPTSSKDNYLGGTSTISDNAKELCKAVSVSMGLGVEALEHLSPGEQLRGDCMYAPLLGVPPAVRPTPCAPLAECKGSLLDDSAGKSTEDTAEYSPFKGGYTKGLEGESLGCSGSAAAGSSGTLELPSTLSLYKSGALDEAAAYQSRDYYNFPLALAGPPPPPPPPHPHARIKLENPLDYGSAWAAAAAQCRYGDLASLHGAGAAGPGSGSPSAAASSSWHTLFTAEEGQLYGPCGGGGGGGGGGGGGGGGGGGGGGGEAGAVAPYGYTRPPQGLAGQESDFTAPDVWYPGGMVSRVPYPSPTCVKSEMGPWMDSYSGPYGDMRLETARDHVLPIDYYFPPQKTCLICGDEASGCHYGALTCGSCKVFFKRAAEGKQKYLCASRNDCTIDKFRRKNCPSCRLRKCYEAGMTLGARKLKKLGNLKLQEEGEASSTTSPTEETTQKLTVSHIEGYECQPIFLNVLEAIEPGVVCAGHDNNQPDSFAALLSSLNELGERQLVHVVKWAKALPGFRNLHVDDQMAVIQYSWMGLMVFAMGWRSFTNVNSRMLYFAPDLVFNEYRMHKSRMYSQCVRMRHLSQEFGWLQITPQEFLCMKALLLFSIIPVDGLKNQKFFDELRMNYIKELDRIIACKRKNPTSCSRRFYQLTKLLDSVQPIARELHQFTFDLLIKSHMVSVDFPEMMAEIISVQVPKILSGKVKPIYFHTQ
T2 sequence (P10275 whole entry F877L): as the sequence (P10275 whole entry) above, with F877L counted along it

Row | EC50 [1] [nM] | Emax [1] [%] | IC50 [2, 5] [nM] | Emax [2] [%] | IC50 [3, 5] [nM] | Emax [3] [%] | EC50 [4] [nM] | Emax [4] [%] | rGABA-gated Cl− channel % inh @10 μM (rGABA-gated Cl− channel) [%] | LNCaP-AR-wt ANT pIC50 [2, 5] | LNCaP-AR-F876L ANT pIC50 [3, 5] | Structure (SMILES)
1 | > 15100 | 0.8 | 22.9 | 99.2 | 9.55 | 98.1 | > 15100 | 0.6 | 91.5 | – | – | N#CCN1CCC(Oc2ccc(N3C(=S)N(c4cnc(C#N)c(C(F)(F)F)c4)C(=O)C34CCC4)cn2)CC1 [Cpd 60, 5-[8-[6-[[1-(cyanomethyl)-4-piperidyl]oxy]-3-pyridyl]-5-oxo-7-thioxo-6,8-diazaspiro[3.4]octan-6-yl]-3-(trifluoromethyl)pyridine-2-carbonitrile]
2 | > 15100 | 0.4 | 29.5 | 99.2 | 36.3 | 98.8 | > 15100 | 0.3 | 26.1 | – | – | COCCN1CCC(Oc2ccc(N3C(=S)N(c4cnc(C#N)c(C(F)(F)F)c4)C(=O)C34CCC4)cn2)CC1 [Cpd 61, 5-[8-[6-[[1-(2-methoxyethyl)-4-piperidyl]oxy]-3-pyridyl]-5-oxo-7-thioxo-6,8-diazaspiro[3.4]octan-6-yl]-3-(trifluoromethyl)pyridine-2-carbonitrile]
3 | > 15100 | 0.5 | 38 | 100 | 26.9 | 98.4 | > 15100 | 0.2 | 61.0 | – | – | Cc1cc(N2C(=O)C3(CCC3)N(c3ccc(OC4CCN(CC(F)(F)F)CC4)nc3)C2=S)cnc1C#N [Cpd 62, 3-methyl-5-[5-oxo-7-thioxo-8-[6-[[1-(2,2,2-trifluoroethyl)-4-piperidyl]oxy]-3-pyridyl]-6,8-diazaspiro[3.4]octan-6-yl]pyridine-2-carbonitrile]
4 | > 15100 | 0 | 81.3 | 102 | 69.2 | 101 | > 15100 | 0.1 | 13.0 | – | – | N#Cc1ncc(N2C(=O)C3(CCC3)N(c3ccc(OC4CCN(CCO)CC4)nc3)C2=S)cc1C(F)(F)F [Cpd 63, 5-[8-[6-[[1-(2-hydroxyethyl)-4-piperidyl]oxy]-3-pyridyl]-5-oxo-7-thioxo-6,8-diazaspiro[3.4]octan-6-yl]-3-(trifluoromethyl)pyridine-2-carbonitrile]
5 | > 15100 | -0.2 | – | 101 | – | 100 | > 15100 | 0.1 | 5.8 | 7.30 | 7.33 | N#Cc1ncc(N2C(=O)C3(CCC3)N(c3ccc(OC4CCNCC4)nc3)C2=S)cc1Cl [Cpd 64, 3-chloro-5-[5-oxo-8-[6-(4-piperidyloxy)-3-pyridyl]-7-thioxo-6,8-diazaspiro[3.4]octan-6-yl]pyridine-2-carbonitrile]
6 | > 15100 | 0.4 | 7.24 | 101 | 8.51 | 99.3 | > 15100 | 0.4 | 67.2 | – | – | N#CCN1CCC(Oc2ccc(N3C(=S)N(c4cnc(C#N)c(Cl)c4)C(=O)C34CCC4)cn2)CC1 [Cpd 65, 3-chloro-5-[8-[6-[[1-(cyanomethyl)-4-piperidyl]oxy]-3-pyridyl]-5-oxo-7-thioxo-6,8-diazaspiro[3.4]octan-6-yl]pyridine-2-carbonitrile]
7 | > 15100 | 0.5 | 49 | 99 | 45.7 | 95.5 | > 15100 | 0.9 | 83.0 | – | – | N#Cc1ncc(N2C(=O)C3(CCC3)N(c3ccc(OC4CCN(CC(F)(F)F)CC4)nc3)C2=S)cc1C(F)(F)F [Cpd 66, 5-[5-oxo-7-thioxo-8-[6-[[1-(2,2,2-trifluoroethyl)-4-piperidyl]oxy]-3-pyridyl]-6,8-diazaspiro[3.4]octan-6-yl]-3-(trifluoromethyl)pyridine-2-carbonitrile]
8 | > 15100 | 0.4 | 42.7 | 99.6 | 46.8 | 97.4 | > 15100 | 0.7 | 53.4 | – | – | N#Cc1ncc(N2C(=O)C3(CCC3)N(c3ccc(OC4CCN(CCF)CC4)nc3)C2=S)cc1C(F)(F)F [Cpd 67, 5-[8-[6-[[1-(2-fluoroethyl)-4-piperidyl]oxy]-3-pyridyl]-5-oxo-7-thioxo-6,8-diazaspiro[3.4]octan-6-yl]-3-(trifluoromethyl)pyridine-2-carbonitrile]
9 | > 15100 | 0.6 | 39.8 | 101 | 17.4 | 99.7 | > 15100 | 0.4 | 34.9 | – | – | N#Cc1ncc(N2C(=O)C3(CCC3)N(c3ccc(OC4CCC(N)CC4)cc3)C2=S)cc1C(F)(F)F (stereo not drawn) [Cpd 68, 5-[8-[4-(4-aminocyclohexoxy)phenyl]-5-oxo-7-thioxo-6,8-diazaspiro[3.4]octan-6-yl]-3-(trifluoromethyl)pyridine-2-carbonitrile]
10 | > 15100 | 0.2 | 115 | 101 | 69.2 | 98.9 | > 15100 | 0.1 | 77.5 | – | – | N#Cc1ncc(N2C(=O)C3(CCC3)N(c3ccc(N4CCOCC4)cc3)C2=S)cc1C(F)(F)F [Cpd 69, 5-[8-(4-Morpholinophenyl)-5-oxo-7-thioxo-6,8-diazaspiro[3.4]octan-6-yl]-3-(trifluoromethyl)pyridine-2-carbonitrile]
11 | > 15100 | 0.8 | 33.9 | 98.8 | 38.9 | 97.1 | > 15100 | 3.6 | 9.2 | – | – | COCCN1CCC(Oc2ccc(N3C(=S)N(c4cnc(C#N)c(Cl)c4)C(=O)C34CCC4)cn2)CC1 [Cpd 70, 3-chloro-5-[8-[6-[[1-(2-methoxyethyl)-4-piperidyl]oxy]-3-pyridyl]-5-oxo-7-thioxo-6,8-diazaspiro[3.4]octan-6-yl]pyridine-2-carbonitrile]
12 | > 15100 | 0.2 | 102 | 101 | 178 | 98.3 | > 15100 | 0.5 | 82.1 | – | – | CC(=O)N1CC(F)(F)CC1COc1ccc(N2C(=S)N(c3cnc(C#N)c(C(F)(F)F)c3)C(=O)C23CCC3)cc1 (stereo not drawn) [Cpd 71, 5-[8-[4-[(1-acetyl-4,4-difluoro-pyrrolidin-2-yl)methoxy]phenyl]-5-oxo-7-thioxo-6,8-diazaspiro[3.4]octan-6-yl]-3-(trifluoromethyl)pyridine-2-carbonitrile]
13 | > 15100 | -0.1 | 275 | 101 | 174 | 100 | > 15100 | 0 | 20.0 | – | – | CN1CCC(CNC(=O)c2ccc(N3C(=S)N(c4cnc(C#N)c(C(F)(F)F)c4)C(=O)C34CCC4)cc2)CC1 [Cpd 72, 4-[6-[6-cyano-5-(trifluoromethyl)-3-pyridyl]-5-oxo-7-thioxo-6,8-diazaspiro[3.4]octan-8-yl]-N-[(1-methyl-4-piperidyl)methyl]benzamide]
14 | > 15100 | 1 | 501 | 101 | 224 | 97.6 | > 15100 | 0.5 | 80.1 | – | – | CNC(=O)N1CCC(CNC(=O)c2ccc(N3C(=S)N(c4cnc(C#N)c(C(F)(F)F)c4)C(=O)C34CCC4)cc2)CC1 [Cpd 73, 4-[[[4-[6-[6-cyano-5-(trifluoromethyl)-3-pyridyl]-5-oxo-7-thioxo-6,8-diazaspiro[3.4]octan-8-yl]benzoyl]amino]methyl]-N-methyl-piperidine-1-carboxamide]
15 | > 15100 | 0.2 | 72.4 | 100 | 21.4 | 98.1 | > 15100 | 1.5 | 13.9 | – | – | N#Cc1ncc(N2C(=O)C3(CCC3)N(c3ccc(OCC4CNCCO4)cc3)C2=S)cc1C(F)(F)F (stereo not drawn) [Cpd 74, 5-[8-[4-(morpholin-2-ylmethoxy)phenyl]-5-oxo-7-thioxo-6,8-diazaspiro[3.4]octan-6-yl]-3-(trifluoromethyl)pyridine-2-carbonitrile]
